Test results reported in patent US10450281B1, “Compounds and methods for treating cancer” (Dana-Farber Cancer Institute, Inc., priority 2014, dated 2019).

Key:
EGFR = EGFR degradation immunoblot in NSCLC line H1650 (FIG. 3); type: cell-based, human; settings: H1650 cells, 24 h
Method: Specifically, the NSCLC line H1650, which is driven by a constitutively-activated EGFR, was treated with the indicated concentrations of the PAN-DUB inhibitor SJB-019A and/or the kinase inhibitor Gefitinib. After 24 hours, cells were lysed and the total cellular proteins were electrophoresed by standard PAGE methods. Proteins were immunoblotted and probed with commercially available polyclonal antisera to EGFR or Tubulin. […] Specifically, the NSCLC line H1650, which is driven by a constitutively-activated EGFR, was treated with the indicated concentrations of the PAN-DUB inhibitor SJB-019A and/or the kinase inhibitor Gefitinib. After 24 hours, cells were lysed and the total cellular proteins were electrophoresed by standard PAGE methods. Proteins were immunoblotted and probed with commercially available polyclonal antisera to EGFR or Tubulin. Conclusion: the PAN-DUB inhibitor promotes the degradation of the EGFR, at least in part, by inhibition of USP8 which is expressed in these cells. The dose of the inhibitor that reduce the viability of the NSCLC (less than 0.5 μm, see FIG. 2) correlates with the amount of drug required to degrade EGFR (between 0.2-0.5 μm).

USP2a = target: T1, USP2a (Homo sapiens, UniProt O75604); assay: USP2a expression immunoblot in prostate cancer cell line (FIG. 6, FIG. 8); type: cell-based; settings: 24 h
T1 construct: endogenous in cells
T1 sequence (O75604 1-605): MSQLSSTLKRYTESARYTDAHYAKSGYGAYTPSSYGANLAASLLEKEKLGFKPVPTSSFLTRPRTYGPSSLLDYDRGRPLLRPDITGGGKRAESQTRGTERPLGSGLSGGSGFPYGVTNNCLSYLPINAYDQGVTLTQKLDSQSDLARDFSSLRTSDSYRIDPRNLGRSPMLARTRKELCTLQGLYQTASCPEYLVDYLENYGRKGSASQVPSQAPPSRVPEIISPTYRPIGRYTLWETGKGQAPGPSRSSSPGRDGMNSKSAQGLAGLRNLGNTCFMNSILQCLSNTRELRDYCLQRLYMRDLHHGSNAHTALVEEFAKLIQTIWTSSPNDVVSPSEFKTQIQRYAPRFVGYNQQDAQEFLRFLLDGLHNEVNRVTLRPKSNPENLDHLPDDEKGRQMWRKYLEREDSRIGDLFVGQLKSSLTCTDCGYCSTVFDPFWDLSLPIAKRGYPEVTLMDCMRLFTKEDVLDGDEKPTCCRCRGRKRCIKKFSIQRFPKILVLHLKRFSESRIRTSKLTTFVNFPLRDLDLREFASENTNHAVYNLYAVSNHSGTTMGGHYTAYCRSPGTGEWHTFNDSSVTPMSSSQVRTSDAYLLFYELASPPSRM
Method: (§1) Specifically, a human prostate cancer cell line was exposed to the indicated concentrations of PAN-DUB inhibitor, 019A, for 24 hours. Thereafter, cells were lysed, and total cellular proteins were electrophoresed and immunoblotted. Proteins were probed with anti-USP2, anti-Cyclin D1, and anti-vinculin. […] Specifically, a human prostate cancer cell line was exposed to the indicated concentrations of PAN-DUB inhibitor, 019A, for 24 hours. Thereafter, cells were lysed, and total cellular proteins were electrophoresed and immunoblotted. Proteins were probed with anti-USP2, anti-Cyclin D1, and anti-tubulin. […] Specifically, a human prostate cancer cell line was exposed to the indicated concentrations of PAN-DUB inhibitor, 019A, for 24 hours. Thereafter, cells were lysed, and total cellular proteins were electrophoresed and immunoblotted. Proteins were probed with anti-USP2, anti-Cyclin D1, and anti-Tubulin antibodies or anti-vinculin antibodies. Conclusion: the PAN-DUB inhibitor promotes the dose-dependent degradation of Cyclin D1, consistent with the dose-dependent killing of the cells by the drug. The dose of the inhibitor that reduce the viability of the prostate cancer cells (about 0.5 to 0.8 μm, see FIG. 5 and FIG. 7) correlates with the amount of drug required to degrade cyclin D1 (about 0.5 to 0.8 μm).

Cyclin D1 = Cyclin D1 degradation immunoblot in prostate cancer cell line (FIG. 6, FIG. 8); type: cell-based, human; settings: 24 h
Method: as §1

[1] = system: human prostate cancer cell line; assay: Prostate cancer cell viability after 24 h incubation (FIG. 5, FIG. 7); type: cell-based
Method: A human prostate cancer cell line was incubated with the indicated concentration of DUB inhibitor for 24 hours, and viability was then measured. […] A human prostate cancer cell line was incubated with the indicated concentration of DUB inhibitor for 24 hours, and viability was then measured. […] A human prostate cancer cell line was incubated with the indicated concentration of DUB inhibitor for 24 hours, and viability was then measured.

AR = AR degradation immunoblot in prostate cancer cell line (FIG. 9); type: cell-based, human; settings: 24 h
Method: (§2) Specifically, a human prostate cancer cell line was exposed to the indicated concentrations of PAN-DUB inhibitor, 019A, for 24 hours. Thereafter, cells were lysed, and total cellular proteins were electrophoresed and immunoblotted. Proteins were probed with anti-USP12, anti-AR, and anti-Tubulin antibodies. […] Specifically, a human prostate cancer cell line was exposed to the indicated concentrations of PAN-DUB inhibitor, 019A, for 24 hours. Thereafter, cells were lysed, and total cellular proteins were electrophoresed and immunoblotted. Proteins were probed with anti-USP12, anti-AR, and anti-Tubulin antibodies. Conclusion: the PAN-DUB inhibitor promotes the dose-dependent degradation of AR, consistent with the dose-dependent killing of the cells by the drug. The dose of the inhibitor that reduce the viability of the prostate cancer cells (about 0.5 to 0.8 μm, see FIG. 5 and FIG. 7) correlates with the amount of drug required to degrade AR (about 0.6 to 0.8 μm).

[2] = system: human non-small cell lung cancer (NSCLC) lines; assay: NSCLC cell line viability after 24 h incubation (FIG. 2); type: cell-based
Method: The indicated human non-small cell lung cancer (NSCLC) lines were incubated with the indicated concentrations of the DUB inhibitor (019A) for twenty-four hours, and cell viability was measured. […] The indicated human non-small cell lung cancer (NSCLC) lines were incubated with the indicated concentrations of the DUB inhibitor (019A) for twenty-four hours, and cell viability was measured. […] Specifically, the NSCLC line H1650, which is driven by a constitutively-activated EGFR, was treated with the indicated concentrations of the PAN-DUB inhibitor SJB-019A and/or the kinase inhibitor Gefitinib. After 24 hours, cells were lysed and the total cellular proteins were electrophoresed by standard PAGE methods. Proteins were immunoblotted and probed with commercially available polyclonal antisera to EGFR or Tubulin. Conclusion: the PAN-DUB inhibitor promotes the degradation of the EGFR, at least in part, by inhibition of USP8 which is expressed in these cells. The dose of the inhibitor that reduce the viability of the NSCLC (less than 0.5 μm, see FIG. 2) correlates with the amount of drug required to degrade EGFR (between 0.2-0.5 μm).

[3] = Pharmacokinetics of 019A in mice (FIG. 1); type: in vivo; settings: IV, IP, or oral (PO) administration
USP12 = target: T2, USP12 (Homo sapiens, UniProt O75317); assay: USP12 protein immunoblot in prostate cancer cell line (FIG. 9); type: cell-based; settings: 24 h
T2 construct: cells were lysed, and total cellular proteins were electrophoresed and immunoblotted; endogenous in cells
T2 sequence (O75317 whole entry): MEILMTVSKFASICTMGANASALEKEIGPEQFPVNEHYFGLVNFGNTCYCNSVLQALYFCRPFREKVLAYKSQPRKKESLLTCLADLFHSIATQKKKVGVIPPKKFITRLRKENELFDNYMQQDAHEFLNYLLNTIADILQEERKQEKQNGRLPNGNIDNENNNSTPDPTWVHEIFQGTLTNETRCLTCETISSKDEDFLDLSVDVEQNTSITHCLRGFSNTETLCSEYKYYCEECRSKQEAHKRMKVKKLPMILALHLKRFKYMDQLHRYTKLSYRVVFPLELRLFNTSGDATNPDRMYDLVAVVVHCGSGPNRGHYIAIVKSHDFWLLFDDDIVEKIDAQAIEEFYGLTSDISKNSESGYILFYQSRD
T2 sequence (Q8TAF3 whole entry partner): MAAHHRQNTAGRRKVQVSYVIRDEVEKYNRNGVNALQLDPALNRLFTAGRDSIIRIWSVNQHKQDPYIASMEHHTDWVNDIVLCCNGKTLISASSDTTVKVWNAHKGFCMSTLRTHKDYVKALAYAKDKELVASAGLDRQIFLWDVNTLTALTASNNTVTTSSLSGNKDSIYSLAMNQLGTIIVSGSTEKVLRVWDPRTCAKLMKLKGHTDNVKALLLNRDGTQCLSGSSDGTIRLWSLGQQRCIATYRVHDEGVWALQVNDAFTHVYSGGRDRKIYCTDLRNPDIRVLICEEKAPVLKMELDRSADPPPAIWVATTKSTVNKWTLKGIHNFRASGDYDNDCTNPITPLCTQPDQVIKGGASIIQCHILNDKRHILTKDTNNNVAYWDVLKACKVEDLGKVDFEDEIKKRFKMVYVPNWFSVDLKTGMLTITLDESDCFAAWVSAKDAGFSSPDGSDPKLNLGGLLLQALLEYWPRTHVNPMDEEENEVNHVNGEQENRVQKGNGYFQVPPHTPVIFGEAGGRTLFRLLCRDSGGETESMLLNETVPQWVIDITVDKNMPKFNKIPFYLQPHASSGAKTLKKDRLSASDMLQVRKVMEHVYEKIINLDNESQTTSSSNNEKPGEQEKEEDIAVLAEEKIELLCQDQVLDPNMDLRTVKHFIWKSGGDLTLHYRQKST
T2 sequence (Q8TBZ3 whole entry partner): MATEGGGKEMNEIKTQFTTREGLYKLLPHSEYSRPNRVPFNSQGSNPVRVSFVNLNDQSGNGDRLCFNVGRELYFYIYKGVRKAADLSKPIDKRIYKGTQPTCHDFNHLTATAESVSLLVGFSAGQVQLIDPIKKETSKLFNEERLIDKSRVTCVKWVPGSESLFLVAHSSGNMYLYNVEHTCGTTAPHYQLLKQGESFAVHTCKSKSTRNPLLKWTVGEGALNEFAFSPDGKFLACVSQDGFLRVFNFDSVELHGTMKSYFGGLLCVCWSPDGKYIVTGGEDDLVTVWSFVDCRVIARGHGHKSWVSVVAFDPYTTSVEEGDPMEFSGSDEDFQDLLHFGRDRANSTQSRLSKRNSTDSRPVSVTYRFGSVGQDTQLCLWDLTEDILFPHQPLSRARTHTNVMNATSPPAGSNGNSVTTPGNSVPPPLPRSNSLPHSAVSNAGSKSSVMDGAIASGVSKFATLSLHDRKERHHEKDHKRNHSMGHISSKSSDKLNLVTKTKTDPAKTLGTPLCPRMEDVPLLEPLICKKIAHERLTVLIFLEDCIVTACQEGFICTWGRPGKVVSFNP
Method: as §2

USP8 = target: T3, USP8 (Homo sapiens, UniProt P40818); assay: Ub-VS labelling gel shift in K562 cell lysate, anti-USP8 western blot (FIG. 4); type: biochemical; settings: dose dependent
T3 construct: endogenous in cells; host or cells: K562 human leukemia cells (lysate)
T3 sequence (P40818 1-1118): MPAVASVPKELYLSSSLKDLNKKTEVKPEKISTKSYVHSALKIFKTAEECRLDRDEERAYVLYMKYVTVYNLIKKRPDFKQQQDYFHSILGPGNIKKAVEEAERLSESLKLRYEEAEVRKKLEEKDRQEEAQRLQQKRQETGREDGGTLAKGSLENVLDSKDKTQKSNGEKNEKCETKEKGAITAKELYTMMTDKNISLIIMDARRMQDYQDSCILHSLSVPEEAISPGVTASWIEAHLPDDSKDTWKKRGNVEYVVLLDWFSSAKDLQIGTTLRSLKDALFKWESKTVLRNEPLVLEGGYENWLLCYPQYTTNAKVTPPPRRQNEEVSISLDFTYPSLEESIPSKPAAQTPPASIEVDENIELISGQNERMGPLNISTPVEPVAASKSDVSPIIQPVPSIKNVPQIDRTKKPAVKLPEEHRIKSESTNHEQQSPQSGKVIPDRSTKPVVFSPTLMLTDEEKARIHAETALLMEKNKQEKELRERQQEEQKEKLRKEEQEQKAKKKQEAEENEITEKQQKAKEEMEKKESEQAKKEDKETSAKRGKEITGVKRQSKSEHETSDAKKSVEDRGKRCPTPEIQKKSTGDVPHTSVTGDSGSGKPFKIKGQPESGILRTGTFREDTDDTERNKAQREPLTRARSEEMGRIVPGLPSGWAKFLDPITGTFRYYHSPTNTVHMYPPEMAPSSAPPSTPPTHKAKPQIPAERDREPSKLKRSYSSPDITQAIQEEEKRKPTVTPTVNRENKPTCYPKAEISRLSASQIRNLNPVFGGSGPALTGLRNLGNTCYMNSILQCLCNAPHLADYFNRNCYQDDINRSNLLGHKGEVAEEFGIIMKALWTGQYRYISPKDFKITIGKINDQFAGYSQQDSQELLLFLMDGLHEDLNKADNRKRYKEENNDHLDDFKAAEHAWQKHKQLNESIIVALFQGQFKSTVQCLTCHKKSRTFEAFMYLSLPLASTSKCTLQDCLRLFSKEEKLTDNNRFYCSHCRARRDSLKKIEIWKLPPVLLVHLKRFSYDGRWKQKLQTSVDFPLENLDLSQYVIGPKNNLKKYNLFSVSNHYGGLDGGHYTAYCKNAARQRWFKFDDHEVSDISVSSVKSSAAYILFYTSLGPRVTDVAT
Method: (§3) Human leukemia cells (K652 cell line) express USP8, USP1, and other DUBs. In this experiment, K562 cells were lysed, and total cellular proteins were incubated with the affinity reagent, Ub-VS (vinyl sulfone) which covalently binds to active USPs. As indicated, the addition of Ub-VS causes an upward gel shift of active USP8 and active USP1 (lane 2). […] A western blot is shown, immunoblotted with either anti-USP8, anti-USP1, or anti-HA.
as §3, with “anti-HA antibodies.” for “anti-HA.”

USP1 = target: T4, USP1 (Homo sapiens, UniProt O94782); assay: Ub-VS labelling gel shift in K562 cell lysate, anti-USP1 western blot (FIG. 4); type: biochemical; settings: dose dependent
T4 construct: endogenous in cells; host or cells: K562 human leukemia cells (lysate)
T4 sequence (O94782 whole entry): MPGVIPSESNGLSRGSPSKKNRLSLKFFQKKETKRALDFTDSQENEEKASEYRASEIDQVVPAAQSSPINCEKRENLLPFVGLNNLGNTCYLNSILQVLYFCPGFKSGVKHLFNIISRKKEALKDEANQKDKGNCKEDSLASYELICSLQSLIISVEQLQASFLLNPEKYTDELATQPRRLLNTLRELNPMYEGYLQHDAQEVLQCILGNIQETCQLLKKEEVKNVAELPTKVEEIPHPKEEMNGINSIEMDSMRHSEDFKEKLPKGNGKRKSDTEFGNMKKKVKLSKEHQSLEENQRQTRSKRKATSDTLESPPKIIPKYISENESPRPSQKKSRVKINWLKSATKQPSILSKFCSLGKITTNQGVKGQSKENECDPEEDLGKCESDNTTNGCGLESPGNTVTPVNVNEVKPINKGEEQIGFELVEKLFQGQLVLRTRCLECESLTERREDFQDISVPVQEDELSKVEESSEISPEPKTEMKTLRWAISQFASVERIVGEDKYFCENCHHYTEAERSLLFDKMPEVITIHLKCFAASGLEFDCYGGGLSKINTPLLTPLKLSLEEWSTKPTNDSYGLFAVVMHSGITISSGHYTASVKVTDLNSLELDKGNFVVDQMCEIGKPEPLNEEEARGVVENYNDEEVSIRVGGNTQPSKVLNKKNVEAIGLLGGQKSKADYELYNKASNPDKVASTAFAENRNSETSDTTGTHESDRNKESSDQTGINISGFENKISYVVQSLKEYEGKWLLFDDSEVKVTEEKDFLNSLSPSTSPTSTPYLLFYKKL
T4 sequence (Q8TAF3 whole entry partner): as the sequence (Q8TAF3 whole entry partner) above
Method: as §3
as §3, with “anti-HA antibodies.” for “anti-HA.”

Row | effect on USP2a expression (USP2a) | effect on USP12 protein (USP12) | inhibition of Ub-VS binding to active USP8 (USP8) | inhibition of Ub-VS binding to active USP1 (USP1) | Molecule | amount of drug required to degrade EGFR (EGFR) | amount of drug required to degrade cyclin D1 (Cyclin D1) | dose of the inhibitor that reduces the viability of the prostate cancer cells [1] | drug concentration range for killing of prostate cancer cells [1] | amount of drug required to degrade AR (AR) | dose of the inhibitor that reduces the viability of the NSCLC ([2]; 24 h incubation) | selective killing (cytotoxicity) of lung cancer cell lines ([2]; cell lines which express activated EGF-receptor, 24 h) | serum concentrations after administration [3]
1 | does not affect USP2a expression | degrades USP12 protein |  |  | O=C1c2ccccc2C(=O)c2oc(-c3cccnc3)nc21 [019A] | 0.2-0.5 μm | 0.5 to 0.8 μm | 0.5 to 0.8 μm | submicromolar range | 0.6 to 0.8 μm | less than 0.5 μm | selective killing (cytotoxicity) for lung cancer cell lines which express activated EGF-receptor | inhibitory serum concentrations of 019A can be achieved
2 |  |  | blocks the upward shift | blocks the upward shift | Ub-aldehyde |  |  |  |  |  |  |  | 
